# Data reported in patent US11214548B2, “Cannabinoid receptor modulators” (priority 2009, dated 2022).
# Experiments:
# acute and chronic pain = conditions: animal studies; cited from earlier work
# RPE cells = conditions: cited from earlier work
# vagus nerve preparations = conditions: guinea pig and human vagus nerve preparations in vitro; cited from earlier work
# atherosclerosis = conditions: cited from earlier work
# [1] = tested on: allergic contact dermatitis; conditions: mouse, injection; cited from earlier work
# EAE = EAE mouse model; cited from earlier work
# [2] = tested on: Streptozotocin-Induced Painful Diabetic Peripheral Neuropathy (PDPN) Model; assay: Streptozotocin-induced painful diabetic peripheral neuropathy (PDPN) model; assay type: in vivo, male Sprague-Dawley rats; conditions: 10 mg/kg orally in 0.5% methylcellulose; 1, 4 and 6 hours post-dosing, FIG. 17 and FIG. 18
# Method: Example 12: Streptozotocin-Induced Painful Diabetic Peripheral Neuropathy (PDPN) Model
# Male Sprague-Dawley rats were injected intraperitoneally with 50 mg/kg of streptozotocin (STZ) in sodium citrate buffer. 10% sucrose water was provided ad libitum for the first 48 hours post-STZ followed by regular drinking water. Rats were monitored once weekly for blood glucose levels and body weights. Development of tactile allodynia over time was analyzed using Von Frey filaments and a 50% withdrawal threshold was determined using Dixon's up-down procedure. […] Tactile allodynia was evaluated at 1, 4 and 6 hours post-dosing.
# [3] = tested on: hypersensitivity following ligation of spinal nerves; conditions: rats, cited from earlier work
compound,measurement,setting,value
"CCCCCCC(C)(C)c1ccc([C@@H]2C[C@H](O)CC[C@H]2CCCO)c(O)c1 [CP55,940]","effect against acute and chronic pain from chemical, mechanical, and thermal pain stimuli",acute and chronic pain,effective
same,protection of RPE cells from oxidative damage,RPE cells,significantly protects
same,"capsaicin-, PGE2- and hypertonic saline-induced depolarization",vagus nerve preparations,reduces
SR144528,blockade of the THC effect on atherosclerosis,atherosclerosis; in vitro and in vivo,completely blocks
same,cutaneous inflammation and the pruritis (itch) associated with it,[1],exacerbates
same,blockade of the WIN 55212-2 effect on leukocyte rolling and adhesion,EAE,blocked
CCCCCc1cc(O)c2c(c1)OC(C)(C)[C@@H]1CCC(C)=C[C@@H]21 [THC],progression of atherosclerosis,atherosclerosis; ApoE knockout mice,reduces
same,cutaneous inflammation and the pruritis (itch) associated with it,[1],reduces
same,"effect against acute and chronic pain from chemical, mechanical, and thermal pain stimuli",acute and chronic pain,effective
same,severity of clinical disease,EAE,significantly inhibits
CCCn1c(C)c(C(=O)c2cccc3ccccc23)c2ccccc21 [JWH015],protection of RPE cells from oxidative damage,RPE cells,comparable protection
"CC(C)(C)[C@@H](CO)NC(=O)c1nn(-c2c[n+]([O-])ccn2)c2c1C[C@@H]1C[C@H]21 [Compound 699, (1aS,5aS)-2-(4-Oxy-pyrazin-2-yl)-1a,2,5,5a-tetrahydro-1H-2,3-diaza-cyclopropa[a]pentalene-4-carboxylic Acid ((S)-1-Hydroxymethyl-2,2-dimethyl-propyl)-amide]","analgesic efficacy (tactile allodynia, 50% withdrawal threshold)",[2],robust and sustained analgesic efficacy over 6 hours
"CC(C)(NC(=O)c1nn(-c2c[n+]([O-])ccn2)c2c1C[C@@H]1C[C@H]21)C(F)(F)F [Compound 919, (1aS,5aS)-2-(4-Oxy-pyrazin-2-yl)-1a,2,5,5a-tetrahydro-1H-2,3-diaza-cyclopropa[a]pentalene-4-carboxylic acid (2,2,2-trifluoro-1,1-dimethyl-ethyl)-amide]","analgesic efficacy (tactile allodynia, 50% withdrawal threshold)",[2],robust and sustained analgesic efficacy over 6 hours
"Cc1c(C(=O)NN2CCCCC2)nn(-c2ccc(Cl)cc2Cl)c1-c1ccc(Cl)cc1 [Compound S141716A, S141716A]",cutaneous inflammation and the pruritis (itch) associated with it,[1],exacerbates
COc1ccc2c(c1)c(CCN1CCOCC1)c(C)n2C(=O)c1cccc(Cl)c1Cl [GW405833],hypersensitivity to mechanical stimuli,[3]; administered systemically,significantly reverses
COc1ccc(C(=O)c2c(C)n(CCN3CCOCC3)c3cc(I)ccc23)cc1 [AM630],inhibition of the AM1241 effect on tactile and thermal hypersensitivity,[3],inhibited
